Structures can show the parent of a compound that is named as a salt.
How the values were obtained:
[1] = Solubility in water: water added by degrees until 0.1 g of compound fully dissolves; settings: for Water quantity for dissolving 0.1 g solute: 28° C.
e-NOS = e-NOS expression in Wistar rat pulmonary artery (Western blot); type: cell-based; settings: rat pulmonary artery incubated 2 hours with 0.01 mg/ml (10^-5 M); actin as internal control; FIG. 1
Experimental: The e-NOS expression of dextromethorphan glycyrrhizinate and dimemorfan glycyrrhizinate are carried out via the following procedures.
The blank control group were not added with dextromethorphan glycyrrhizinate or dimemorfan glycyrrhizinate. After incubated for 2 hours, the pulmonary artery were lysed in ice-cold homogenization buffer. The homogenates were centrifuged at 13,000 rpm for 10 minutes at 4° C. The protein concentration was determined by the method of Bradford. Samples were denatured and subjected to sodium dodecylsulfate polyacrylamide gel electrophoresis (SDS-PAGE) using a 7.5% running gel. Protein were transferred to polyvinylidene difluoride (PVDF) membrane, and the PVDF membrane was incubated successively at room temperature with 5% nonfat milk-0.1% Tween-Tris buffered saline for 1 hour, with rabbit antibodies specific for anti-eNOS for 1 hour, and with horseradish peroxidase conjugated anti-rabbit IgG antibodies (HRP-conjugated anti-rabbit IgG Ab) for 1 hour. After each incubation, the membrane was washed extensively with 0.1% Tween-Tris buffered saline. The immunoreactive bands were detected by ECL reagents.
The expressions of actins are also tested at the same time to be the internal control and are depicted in the middle panel of FIG. 1.

[2] = in words; cited from earlier work

**Q.** Which “Solubility (28° C.)” value [1] does the source give for dimemorfan glycyrrhizinate here?
**A.** 0.05%

**Q.** What about the “Water quantity for dissolving 0.1 g solute” value [1] of the same compound?
**A.** 200 mL

**Q.** What about the e-NOS expression (e-NOS) of the same compound?
**A.** good e-NOS expression

**Q.** Which “Solubility (28° C.)” value [1] does the source give for Dimemorfan phosphate here?
**A.** 2.5%

**Q.** And the “Water quantity for dissolving 0.1 g solute” value [1]?
**A.** 4 mL

**Q.** With COc1ccc2c(c1)[C@]13CCCC[C@@H]1[C@H](C2)N(C)CC3 [Dextromethorphan hydrobromide] as the compound, how does the “Solubility (28° C.)” value [1] read?
**A.** 2.5%

**Q.** Which Solubility in water [2] does the source give for COc1ccc2c(c1)[C@]13CCCC[C@@H]1[C@H](C2)N(C)CC3 [dextromethorphan] here?
**A.** water insoluble

**Q.** With dextromethorphan glycyrrhizinate as the compound, how does the e-NOS expression (e-NOS) read?
**A.** good e-NOS expression
